Results on 4 compounds are retold here after patent US7622582B2, “Derivatives of 1-phenyl-benzofuro[3,2]pyridin-2(1H)-one” (Tibotec BVBA, priority 2004, dated 2009).

The structures appear in SMILES notation.

This experiment deals with HIV. The experiment can be described thus: Cellular assay: anti-viral activity in HIV-infected MT4 cells (MTT cell viability). Format: cell-based. Conditions: Human immunodeficiency virus 1, 120 h, five days incubation, MTT readout, negative logarithm of EC50 (protection of 50% of cells from cytopathogenic effect). How it is done: The compounds of the present invention were examined for anti-viral activity in a cellular assay, which was performed according to the following procedure.
HIV- or mock-infected MT4 cells were incubated for five days in the presence of various concentrations of the inhibitor. At the end of the incubation period, the replicating virus in the control cultures has killed all HIV-infected cells in the absence of any inhibitor. Cell viability was determined by measuring the concentration of MTT, a yellow, water soluble tetrazolium dye that is converted to a purple, water insoluble formazan in the mitochondria of living cells only. Upon solubilization of the resulting formazan crystals with isopropanol, the absorbance of the solution was monitored at 540 nm. The values correlate directly to the number of living cells remaining in the culture at the completion of the five day incubation. The inhibitory activity of the compound was monitored on the virus-infected cells and was expressed as EC50 and EC90. These values represent the amount of the compound required to protect 50% and 90%, respectively, of the cells from the cytopathogenic effect of the virus. The toxicity of the compound was measured on the mock-infected cells and was expressed as CC50, which represents the concentration of compound required to inhibit the growth of the cells by 50%. The selectivity index (SI) (ratio CC50/EC50) is an indication of the selectivity of the anti-HIV activity of the inhibitor. Wherever results are reported as e.g. pEC50 or pCC50 values, the result is expressed as the negative logarithm of the result expressed as EC50 or CC50 respectively.
Table 2 lists the pEC50 values obtained in this test for a number of compounds of the invention.
(Protection from cytopathic effect is a common read-out in antiviral testing.)
For orientation: EC50 means the concentration giving half of the maximal effect. A lower EC50 goes with higher potency in that assay. In turn, `CC(=O)c1ccc(-n2c(=O)c(C)c(C#N)c3oc4ccccc4c32)cc1` [Compound 1, 1-(4-Acetyl-phenyl)-3-methyl-2-oxo-1,2-dihydro-benzo[4,5]furo[3,2-b]pyridine-4-carbonitrile] showed an EC50 of 2510 nM. That is a single-digit micromolar value.

The compound `Cc1c(C#N)c(=O)n(-c2ccc([N+](=O)[O-])cc2)c2c1oc1cccnc12` [Compound 3, 4-Methyl-1-(4-nitrophenyl)-2-oxo-1,2-dihydro-furo[3,2-b;4,5-b′]dipyridine-3-carbonitrile] gave an EC50 of 1580 nM.

In the case of `COc1ccc2c(c1)oc1c(C)c(C#N)c(=O)n(-c3ccc([N+](=O)[O-])cc3)c12` [Compound 5, 7-Methoxy-4-methyl-1-(4-nitrophenyl)-2-oxo-1,2-dihydro-benzo[4,5]furo[3,2-b]-pyridine-3-carbonitrile], the EC50 is 398 nM.

As for `Cc1c(C#N)c(=O)n(-c2ccc([N+](=O)[O-])cc2)c2c1oc1cc(O)ccc12` [Compound 6, 7-Hydroxy-4-methyl-1-(4-nitrophenyl)-2-oxo-1,2-dihydro-benzo[4,5]furo[3,2-b]-pyridine-3-carbonitrile], the EC50 is 3160 nM.
